Assay results taken from patent publication US4604239A, “Antibiotics” (Eli Lilly and Company, priority 1985, dated 1986).
Where “and” joins values, the source holds several entries; their conditions need not be identical. Equal entries are not always repeated. Where two headings read alike, the source gives them in different places.

Legend:
[1] = tested on: Staphylococcus aureus; assay: agar-dilution MIC; format: cell-based
[2] = tested on: Hemophilus influenzae; assay: agar-dilution MIC; format: cell-based; details: Table 17
[3] = tested on: Bacteroides fragilis; assay: agar-dilution MIC; format: cell-based; details: Table 14
Description: (§1) The agar-dilution procedure described by the International Collaborative study (ICS) group was used to determine the minimum inhibitory concentrations (MIC's).

[4] = tested on: Staphylococcus epidermidis; assay: agar-dilution MIC; format: cell-based; details: Staphylococcus epidermidis EPI1; Table 17
Description: as §1

[5] = tested on: Streptococcus pneumoniae; assay: agar-dilution MIC; format: cell-based; details: Streptococcus pneumoniae Park I; Table 17
Description: as §1

[6] = tested on: Streptococcus pyogenes; assay: agar-dilution MIC; format: cell-based; details: Streptococcus pyogenes C203; Table 17
Description: as §1

[7] = tested on: Streptococcus sp. (Group D); assay: agar-dilution MIC; format: cell-based; details: Table 17
Description: as §1

[8] = tested on: Bacteroides thetaiotaomicron; format: cell-based; details: Bacteroides thetaiotaomicron 1438; Table 14
Description: as §1

[9] = tested on: Propionibacterium acnes; assay: agar-dilution MIC; format: cell-based; details: Propionibacterium acnes 79; Table 14
Description: Antibiotic A41030 factors A, B and C have also been tested and found to be active against a genus of anaerobic bacteria identified as Propionibacterium acnes.

[10] = tested on: Clostridium difficile; format: cell-based
[11] = tested on: Clostridium perfringens; format: cell-based; details: Clostridium perfringens 81; Table 14
[12] = tested on: Clostridium septicum; assay: agar-dilution MIC; format: cell-based; details: Clostridium septicum 1128; Table 14
[13] = tested on: Eubacterium aerofaciens; assay: agar-dilution MIC; format: cell-based; details: Eubacterium aerofaciens 1235; Table 14
[14] = tested on: Peptococcus asaccharolyticus; assay: agar-dilution MIC; format: cell-based; details: Peptococcus asaccharolyticus 1302; Table 14
Procedure: The MIC values were determined by the agar-dilution method, and are recorded in Table 15, which follows.

[15] = tested on: Peptostreptococcus anaerobius; assay: agar-dilution MIC; format: cell-based; details: Peptostreptococcus anaerobius 1428; Table 14
[16] = tested on: Peptostreptococcus intermedius; assay: agar-dilution MIC; format: cell-based; details: Peptostreptococcus intermedius 1264; Table 14
[17] = tested on: Bacteroides melaninogenicus; assay: agar-dilution MIC; format: cell-based; details: Bacteroides melaninogenicus 2736; Table 14
[18] = tested on: Fusobacterium symbiosum; assay: agar-dilution MIC; format: cell-based; details: Fusobacterium symbiosum 1470; Table 14
[19] = tested on: Fusobacterium necrophorum; assay: agar-dilution MIC; format: cell-based; details: Fusobacterium necrophorum 6054A; Table 14
[20] = tested on: S. pneumoniae; assay: experimental bacterial infection in mice; format: in vivo; details: two doses subcutaneously
Procedure: (§2) All of the A41030 factors tested have shown in vivo antimicrobial activity against experimental bacterial infections. When two doses of test compound were administered subcutaneously to mice in illustrative infections, the activity observed is measured as an ED50 value [effective dose in mg./kg. to protect fifty percent of the test animals: See Warren Wick, et al., J. Bacteriol. 81, 233-235 (1961)].

[21] = tested on: Staph. aureus; assay: experimental bacterial infection in mice; format: in vivo; details: two doses subcutaneously
Procedure: as §2

[22] = tested on: S. pyogenes; assay: experimental bacterial infection in mice; format: in vivo; details: S. pyogenes infection in mice; two doses subcutaneously
[23] = electrometric titration; format: physicochemical; details: electrometric titration in 66% dimethylformamide in water
Description: Antibiotic A41030 factor A is a white, crystalline solid.

[24] = solubility; format: physicochemical
[25] = tested on: Bacteroides corrodens; assay: agar-dilution MIC; format: cell-based; details: Bacteroides corrodens 1874; Table 14
[26] = tested on: Bacteroides vulgatis; assay: agar-dilution MIC; format: cell-based; details: Bacteroides vulgatis 1211; Table 14
[27] = tested on: Peptococcus prevoti; assay: agar-dilution MIC; format: cell-based; details: Peptococcus prevoti 1281; Table 14
[28] = Staphylococcus aureus S13E, Table 17
[29] = Clostridium difficile 78, Table 16
[30] = Clostridium difficile 107B, Table 16
[31] = Clostridium difficile 111F, Table 16
[32] = Clostridium difficile 1153, Table 16
[33] = Clostridium difficile 2634, Table 16
[34] = Clostridium difficile 3424-5B, Table 16
[35] = Clostridium difficile 3816, Table 16
[36] = Clostridium difficile 6890, Table 16
[37] = Clostridium difficile 8484, Table 16
[38] = Clostridium difficile A-194, Table 16
[39] = Clostridium difficile A-195, Table 16
[40] = Clostridium difficile A-196, Table 16
[41] = Clostridium difficile A-279, Table 16
[42] = Clostridium difficile A-280, Table 16
[43] = Clostridium difficile A-281, Table 16
[44] = Clostridium difficile WAL-2112, Table 16
[45] = Clostridium difficile WAL-3657, Table 16
[46] = Clostridium difficile WAL-4268, Table 16

A41030 factor F
MIC [1, 28]: 1 µg/mL
MIC ([1]; in µg/mL): 0.5 and 1
MIC ([2]; Haemophilus influenzae 76): 32 µg/mL
MIC ([2]; Haemophilus influenzae C.L.): 32 µg/mL
MIC ([3]; Bacteroides fragilis 111): 32 µg/mL
MIC ([3]; Bacteroides fragilis 1877): 32 µg/mL
MIC ([3]; Bacteroides fragilis 1936B): 32 µg/mL
MIC [4]: 0.25 µg/mL
MIC [5]: 2 µg/mL
MIC [6]: 2 µg/mL
MIC ([7]; Streptococcus sp. Group D 9960): 4 µg/mL
MIC ([7]; Streptococcus sp. Group D X66): 4 µg/mL
MIC [8]: 64 µg/mL
MIC [9]: 1.0 µg/mL
MIC [10, 29]: 1.0 µg/mL
MIC [10, 30]: 1.0 µg/mL
MIC [10, 31]: 2 µg/mL
MIC [10, 32]: 2 µg/mL
MIC [10, 33]: 2 µg/mL
MIC [10, 34]: 1.0 µg/mL
MIC [10, 35]: 1.0 µg/mL
MIC [10, 36]: 1.0 µg/mL
MIC [10, 37]: 1.0 µg/mL
MIC [10, 38]: 1.0 µg/mL
MIC [10, 39]: 1.0 µg/mL
MIC [10, 40]: 2 µg/mL
MIC [10, 41]: 1.0 µg/mL
MIC [10, 42]: 1.0 µg/mL
MIC [10, 43]: 2 µg/mL
MIC [10, 44]: 1.0 µg/mL
MIC [10, 45]: 1.0 µg/mL
MIC [10, 46]: 1.0 µg/mL
MIC [11]: 1.0 µg/mL
MIC [12]: 1.0 µg/mL
MIC [13]: 1.0 µg/mL
MIC [14]: ≤ 0.25 µg/mL
MIC [15]: 32 µg/mL
MIC [16]: 1.0 µg/mL
MIC [17]: 1.0 µg/mL
MIC [18]: 1.0 µg/mL
MIC [19]: 1.0 µg/mL
ED50 [20]: > 5.0 mg/kg
ED50 [21]: < 0.31 mg/kg
ED50 [22]: > 5.0 mg/kg
possibly additional pKa's [23]: > 10
solubility (solvents) [24]: soluble in the same solvents as factor A
MIC [25]: 32 µg/mL
MIC [26]: 32 µg/mL
MIC [27]: 32 µg/mL

A41030 factor E
MIC [1, 28]: 0.25 µg/mL
MIC ([1]; in µg/mL): 0.125 and 0.25
MIC ([2]; Haemophilus influenzae 76): 8 µg/mL
MIC ([2]; Haemophilus influenzae C.L.): 8 µg/mL
MIC ([3]; Bacteroides fragilis 111): 64 µg/mL
MIC ([3]; Bacteroides fragilis 1877): 32 µg/mL
MIC ([3]; Bacteroides fragilis 1936B): 64 µg/mL
MIC [4]: 0.25 µg/mL
MIC [5]: 0.25 µg/mL
MIC [6]: 0.25 µg/mL
MIC ([7]; Streptococcus sp. Group D 9960): 1 µg/mL
MIC ([7]; Streptococcus sp. Group D X66): 1 µg/mL
MIC [8]: 64 µg/mL
MIC [9]: 0.5 µg/mL
MIC [10, 29]: 0.5 µg/mL
MIC [10, 30]: 0.5 µg/mL
MIC [10, 31]: 0.5 µg/mL
MIC [10, 32]: 1.0 µg/mL
MIC [10, 33]: 1.0 µg/mL
MIC ([10]; Clostridium difficile 2994, Table 14): 0.5 µg/mL
MIC [10, 34]: 0.5 µg/mL
MIC [10, 35]: 0.5 µg/mL
MIC ([10]; Clostridium difficile 3950D, Table 16): 0.5 µg/mL
MIC [10, 36]: 0.5 µg/mL
MIC [10, 37]: 0.5 µg/mL
MIC [10, 38]: 0.5 µg/mL
MIC [10, 39]: 0.5 µg/mL
MIC [10, 40]: 1.0 µg/mL
MIC [10, 41]: 0.5 µg/mL
MIC [10, 42]: 0.5 µg/mL
MIC [10, 43]: 1.0 µg/mL
MIC [10, 44]: 0.5 µg/mL
MIC [10, 45]: 0.5 µg/mL
MIC [10, 46]: 0.5 µg/mL
MIC [11]: 1.0 µg/mL
MIC [12]: 0.5 µg/mL
MIC [13]: 0.5 µg/mL
MIC [14]: ≤ 0.25 µg/mL
MIC [15]: 32 µg/mL
MIC [16]: 32 µg/mL
MIC [17]: 32 µg/mL
MIC [18]: 1.0 µg/mL
MIC [19]: 0.5 µg/mL
ED50 [21]: < 0.31 mg/kg
possibly additional pKa's [23]: > 10
solubility (solvents) [24]: soluble in the same solvents as factor A
MIC [25]: 64 µg/mL
MIC [26]: 32 µg/mL
MIC [27]: 32 µg/mL
